The values below are quoted from earlier work in US6855835B2, “Allomorph of isomer Z hydrochloride of alkylaminofurane derivative” (Pharmexcel SRL, priority 2000, dated 2005).

SMILES strings stand for the structures.

The test system of one data set is histamine H2-receptors. The note with it: Z isomer compared with E isomer; suggested by authors (10, 11).
The conditions of data set [1]: form 2 compared with form 1; quoted from prior patent (6).

Sequence of histamine H2-receptors (P25021 whole entry): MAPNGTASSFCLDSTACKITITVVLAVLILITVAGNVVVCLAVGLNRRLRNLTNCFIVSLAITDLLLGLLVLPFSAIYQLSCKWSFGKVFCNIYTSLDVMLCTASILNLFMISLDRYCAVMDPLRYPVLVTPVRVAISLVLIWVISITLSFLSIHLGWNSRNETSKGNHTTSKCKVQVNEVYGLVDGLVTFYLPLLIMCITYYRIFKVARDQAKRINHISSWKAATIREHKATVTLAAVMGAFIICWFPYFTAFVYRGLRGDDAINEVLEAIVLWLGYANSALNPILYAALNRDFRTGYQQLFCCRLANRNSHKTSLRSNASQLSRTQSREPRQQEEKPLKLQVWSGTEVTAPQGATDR

For `CN/C(=C/[N+](=O)[O-])NCCSCc1ccc(CN(C)C)o1` (single isomer, unassigned) [Z, (N-[2-[[[5-(dimethylamino)methyl-2-furanyl]methyl]thio]ethyl]-N′-methyl-2-nitro-1,1-ethenediamine)], the “affinity for histamine H2-receptors” value with histamine H2-receptors is reported as “greater configurational affinity”.
For the compound `CNC(=C[N+](=O)[O-])NCCSCc1ccc(CN(C)C)o1.Cl` (racemic) [form 2, N-[2-[[[5-(dimethylamino)methyl-2-furanyl]methyl]thio]ethyl]-N′-methyl-2-nitro-1,1-ethenediamine hydrochloride], the hygroscopicity result in data set [1] is reported as “less hygroscopic than form 1”.
